# ChEMBL document CHEMBL1201862, “PubChem BioAssay data set” (2004)
# The source made the active and inactive calls.
# Key:
# [1] = molecular target: T1, Zinc finger protein mex-5 (Caenorhabditis elegans, UniProt Q9XUB2); assay: potency of MEX-5 RNA-binding blockers – biochemical, C. elegans, fluorescence polarization, dose response (AID 1960)
# T1 sequence (Q9XUB2 whole entry): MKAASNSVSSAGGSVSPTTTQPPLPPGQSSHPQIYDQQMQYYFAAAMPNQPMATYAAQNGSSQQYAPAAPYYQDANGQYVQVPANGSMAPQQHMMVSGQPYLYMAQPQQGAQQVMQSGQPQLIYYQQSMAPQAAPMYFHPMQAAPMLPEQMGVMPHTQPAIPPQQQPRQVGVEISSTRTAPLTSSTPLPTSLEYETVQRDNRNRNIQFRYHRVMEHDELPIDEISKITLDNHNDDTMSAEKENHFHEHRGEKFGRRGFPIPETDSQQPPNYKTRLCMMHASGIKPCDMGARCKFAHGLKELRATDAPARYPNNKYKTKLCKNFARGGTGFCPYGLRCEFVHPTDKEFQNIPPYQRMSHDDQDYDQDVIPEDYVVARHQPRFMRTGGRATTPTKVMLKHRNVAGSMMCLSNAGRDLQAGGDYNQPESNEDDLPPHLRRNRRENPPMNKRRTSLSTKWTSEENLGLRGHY
# [2] = molecular target: T2, Replicative DNA helicase DnaB (Mycobacterium tuberculosis, UniProt P9WMR3); assay: DnaB intein splicing inhibitors, dose response, biochemical, cell-free fluorescence (AID 449749); format: functional
# T2 sequence (P9WMR3 whole entry): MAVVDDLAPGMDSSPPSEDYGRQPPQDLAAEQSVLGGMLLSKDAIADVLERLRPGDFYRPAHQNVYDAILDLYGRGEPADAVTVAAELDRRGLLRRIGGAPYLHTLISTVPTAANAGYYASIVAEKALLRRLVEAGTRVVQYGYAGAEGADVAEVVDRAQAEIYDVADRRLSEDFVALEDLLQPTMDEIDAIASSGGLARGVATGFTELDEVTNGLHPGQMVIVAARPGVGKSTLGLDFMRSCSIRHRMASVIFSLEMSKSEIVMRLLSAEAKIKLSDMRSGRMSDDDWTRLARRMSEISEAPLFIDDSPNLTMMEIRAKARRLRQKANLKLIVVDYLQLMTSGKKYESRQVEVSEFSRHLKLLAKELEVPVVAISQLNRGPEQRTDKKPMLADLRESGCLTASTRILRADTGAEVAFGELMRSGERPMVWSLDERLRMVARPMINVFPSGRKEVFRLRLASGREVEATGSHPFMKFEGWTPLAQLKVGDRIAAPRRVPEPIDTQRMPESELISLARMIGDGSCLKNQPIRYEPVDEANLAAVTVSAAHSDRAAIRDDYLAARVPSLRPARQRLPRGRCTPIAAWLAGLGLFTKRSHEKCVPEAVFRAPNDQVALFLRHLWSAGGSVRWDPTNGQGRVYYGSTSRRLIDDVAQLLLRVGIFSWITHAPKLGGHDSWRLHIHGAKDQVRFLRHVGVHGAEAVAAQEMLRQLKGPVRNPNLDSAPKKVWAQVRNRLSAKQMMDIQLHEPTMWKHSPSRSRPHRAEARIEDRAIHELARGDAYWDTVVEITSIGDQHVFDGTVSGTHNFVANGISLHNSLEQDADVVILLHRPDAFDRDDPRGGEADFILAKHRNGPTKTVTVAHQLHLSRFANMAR
# Saccharomyces cerevisiae = assay: S. cerevisiae Caspase-1/ASC signal blockers IC50, NALP1 inhibitor project selectivity test (AID 488863); format: functional, organism-based
# [3] = molecular target: T3, Heat shock factor protein 1 (Mus musculus, UniProt P38532); assay: enhancement of HSF1-driven luciferase signal – cell-based, NIH3T3, luminescence, dose retest, confirmation (AID 435004); format: functional;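 also: stress induced by proteasome inhibitor MG132 added 30 min after compound; luciferase reporter driven by HSF1 response element in NIH3T3 cells; actives raise luminescence as potentiators of the MG132 stress response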
# T3 sequence (P38532 whole entry): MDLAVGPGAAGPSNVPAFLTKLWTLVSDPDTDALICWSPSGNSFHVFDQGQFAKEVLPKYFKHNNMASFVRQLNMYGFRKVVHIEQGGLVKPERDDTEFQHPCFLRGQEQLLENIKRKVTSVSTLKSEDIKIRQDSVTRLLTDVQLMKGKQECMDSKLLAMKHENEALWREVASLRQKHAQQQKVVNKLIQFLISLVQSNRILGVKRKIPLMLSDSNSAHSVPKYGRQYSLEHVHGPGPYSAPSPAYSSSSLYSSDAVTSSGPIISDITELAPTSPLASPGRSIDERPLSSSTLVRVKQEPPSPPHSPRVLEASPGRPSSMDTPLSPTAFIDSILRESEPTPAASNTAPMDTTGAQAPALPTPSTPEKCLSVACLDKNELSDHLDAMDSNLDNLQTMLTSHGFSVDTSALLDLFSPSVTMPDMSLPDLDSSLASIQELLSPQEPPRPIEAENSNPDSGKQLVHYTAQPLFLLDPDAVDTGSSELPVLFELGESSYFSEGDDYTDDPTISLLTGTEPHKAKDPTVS
# [4] = molecular target: T4, Sentrin-specific protease 8 (Homo sapiens, UniProt Q96LD8); format: functional;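 also: kinetic enzyme assay of SENP8 cleaving a Nedd8 protein substrate, dose-response confirmation of screening hits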
# T4 sequence (Q96LD8 whole entry): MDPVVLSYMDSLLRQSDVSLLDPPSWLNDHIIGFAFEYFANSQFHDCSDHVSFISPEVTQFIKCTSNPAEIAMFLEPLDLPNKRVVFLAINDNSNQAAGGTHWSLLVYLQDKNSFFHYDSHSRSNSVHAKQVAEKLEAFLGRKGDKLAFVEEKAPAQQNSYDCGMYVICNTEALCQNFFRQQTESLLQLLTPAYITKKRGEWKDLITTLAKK
# Misshapen-like kinase 1 = Misshapen-like kinase 1 (Homo sapiens, UniProt Q8N4C8); format: functional;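 also: kinome panel screen with MINK as the panel member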
# [5] = molecular target: Serine/threonine-protein kinase N2 (Homo sapiens, UniProt Q16513); format: functional
# [6] = molecular target: Homeodomain-interacting protein kinase 2 (Homo sapiens, UniProt Q9H2X6); format: functional;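 also: measured within a kinome-wide kinase profiling panel, HIPK2 being one panel member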
# [7] = molecular target: Calcium/calmodulin-dependent protein kinase type II subunit delta (Homo sapiens, UniProt Q13557); format: functional
# [8] = molecular target: Calcium/calmodulin-dependent protein kinase kinase 2 (Homo sapiens, UniProt Q96RR4); assay: Navigating the Kinome. Panel member name: CAMKK2; format: functional
# [9] = molecular target: MAP/microtubule affinity-regulating kinase 3 (Homo sapiens, UniProt P27448); format: functional;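 also: MARK3 affinity measured as one member of a kinome panel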
# [10] = molecular target: MAP/microtubule affinity-regulating kinase 4 (Homo sapiens, UniProt Q96L34); assay: Navigating the Kinome. Panel member name: MARK4; format: functional
# Cytochrome P450 2C19 = Cytochrome P450 2C19 (Homo sapiens, UniProt P33261); assay: Cytochrome panel assay with activity outcomes. Panel member name: p450-cyp2c19 Compounds with AC50 equal or less than 10 uM are considered active; format: functional; settings: read-out: AC50
# [11] = molecular target: Mitogen-activated protein kinase 10 (Homo sapiens, UniProt P53779); assay: Navigating the Kinome. Panel member name: MAPK10; format: functional
# Focal adhesion kinase 1 = Focal adhesion kinase 1 (Homo sapiens, UniProt Q05397); format: functional;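 also: measured as one member of a kinome panel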
# Sequence of Focal adhesion kinase 1 (Q05397 whole entry): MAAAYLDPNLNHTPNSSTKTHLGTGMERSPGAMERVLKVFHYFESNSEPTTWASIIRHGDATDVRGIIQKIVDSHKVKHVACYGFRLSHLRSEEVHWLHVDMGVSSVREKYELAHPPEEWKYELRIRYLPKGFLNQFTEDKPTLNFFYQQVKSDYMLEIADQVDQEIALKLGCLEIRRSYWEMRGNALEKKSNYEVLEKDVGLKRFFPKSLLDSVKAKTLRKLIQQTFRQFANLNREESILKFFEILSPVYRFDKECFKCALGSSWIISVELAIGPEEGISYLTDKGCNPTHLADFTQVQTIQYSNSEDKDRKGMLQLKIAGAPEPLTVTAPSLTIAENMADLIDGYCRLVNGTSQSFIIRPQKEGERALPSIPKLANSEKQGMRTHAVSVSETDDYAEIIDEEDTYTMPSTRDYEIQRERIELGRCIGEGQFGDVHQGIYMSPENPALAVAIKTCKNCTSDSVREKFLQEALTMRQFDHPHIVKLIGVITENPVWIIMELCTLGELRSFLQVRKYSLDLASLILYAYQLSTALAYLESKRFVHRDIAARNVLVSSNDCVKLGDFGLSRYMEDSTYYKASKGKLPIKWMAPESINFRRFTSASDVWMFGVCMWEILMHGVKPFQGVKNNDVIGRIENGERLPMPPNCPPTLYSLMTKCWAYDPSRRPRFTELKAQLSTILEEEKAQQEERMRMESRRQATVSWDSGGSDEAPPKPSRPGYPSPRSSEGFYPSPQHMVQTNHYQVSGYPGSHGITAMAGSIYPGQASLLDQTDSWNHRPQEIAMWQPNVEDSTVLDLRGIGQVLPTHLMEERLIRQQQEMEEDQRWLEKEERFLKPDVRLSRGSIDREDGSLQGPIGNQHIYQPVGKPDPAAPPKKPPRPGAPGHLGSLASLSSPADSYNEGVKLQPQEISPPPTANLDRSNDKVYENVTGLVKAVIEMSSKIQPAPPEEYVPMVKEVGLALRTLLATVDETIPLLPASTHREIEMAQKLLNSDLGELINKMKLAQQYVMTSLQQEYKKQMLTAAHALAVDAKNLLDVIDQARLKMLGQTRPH
# Sequence of Homeodomain-interacting protein kinase 2 (Q9H2X6 whole entry): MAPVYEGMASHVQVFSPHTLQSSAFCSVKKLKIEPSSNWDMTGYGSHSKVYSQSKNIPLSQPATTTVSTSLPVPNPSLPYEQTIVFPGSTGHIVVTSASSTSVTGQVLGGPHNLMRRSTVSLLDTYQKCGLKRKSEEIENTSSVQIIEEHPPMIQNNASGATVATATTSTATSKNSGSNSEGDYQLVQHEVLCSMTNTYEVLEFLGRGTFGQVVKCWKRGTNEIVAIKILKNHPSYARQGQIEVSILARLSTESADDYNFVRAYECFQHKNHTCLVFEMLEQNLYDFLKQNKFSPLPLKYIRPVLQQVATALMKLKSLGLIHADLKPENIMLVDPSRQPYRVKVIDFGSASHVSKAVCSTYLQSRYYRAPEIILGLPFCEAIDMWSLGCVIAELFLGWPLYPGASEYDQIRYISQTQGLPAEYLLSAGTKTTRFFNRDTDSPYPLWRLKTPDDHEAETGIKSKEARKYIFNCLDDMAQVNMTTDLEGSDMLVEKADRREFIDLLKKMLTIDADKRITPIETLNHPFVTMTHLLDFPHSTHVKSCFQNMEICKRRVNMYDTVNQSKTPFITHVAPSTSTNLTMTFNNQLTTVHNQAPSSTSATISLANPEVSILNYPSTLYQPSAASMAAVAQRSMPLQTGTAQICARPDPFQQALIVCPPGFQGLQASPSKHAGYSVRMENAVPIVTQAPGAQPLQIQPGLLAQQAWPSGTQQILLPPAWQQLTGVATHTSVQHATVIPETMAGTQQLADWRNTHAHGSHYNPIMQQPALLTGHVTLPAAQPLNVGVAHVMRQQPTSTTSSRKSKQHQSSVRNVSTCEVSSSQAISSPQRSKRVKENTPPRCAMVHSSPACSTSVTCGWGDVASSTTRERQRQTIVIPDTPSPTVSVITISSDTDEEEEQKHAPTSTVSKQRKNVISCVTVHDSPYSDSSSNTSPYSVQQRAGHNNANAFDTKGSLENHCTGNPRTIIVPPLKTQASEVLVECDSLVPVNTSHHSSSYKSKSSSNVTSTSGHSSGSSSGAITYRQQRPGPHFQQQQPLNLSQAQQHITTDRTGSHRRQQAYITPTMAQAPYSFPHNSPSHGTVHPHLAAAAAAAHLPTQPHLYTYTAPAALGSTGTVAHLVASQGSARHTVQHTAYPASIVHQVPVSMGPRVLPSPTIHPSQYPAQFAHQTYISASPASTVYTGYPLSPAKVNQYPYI
# Sequence of Calcium/calmodulin-dependent protein kinase type II subunit delta (Q13557 whole entry): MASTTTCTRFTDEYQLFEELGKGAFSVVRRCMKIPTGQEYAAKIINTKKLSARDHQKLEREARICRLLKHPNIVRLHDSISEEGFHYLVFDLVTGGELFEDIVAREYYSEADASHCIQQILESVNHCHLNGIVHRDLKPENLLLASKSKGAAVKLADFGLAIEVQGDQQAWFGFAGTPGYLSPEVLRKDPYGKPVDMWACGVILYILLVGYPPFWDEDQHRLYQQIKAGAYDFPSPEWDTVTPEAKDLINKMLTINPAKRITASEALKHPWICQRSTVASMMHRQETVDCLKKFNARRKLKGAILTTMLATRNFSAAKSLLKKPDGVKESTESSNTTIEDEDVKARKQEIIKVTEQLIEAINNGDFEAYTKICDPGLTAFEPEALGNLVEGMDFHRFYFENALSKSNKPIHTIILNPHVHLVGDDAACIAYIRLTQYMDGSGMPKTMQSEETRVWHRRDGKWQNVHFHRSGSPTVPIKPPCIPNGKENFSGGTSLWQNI
# Sequence of Calcium/calmodulin-dependent protein kinase kinase 2 (Q96RR4 whole entry): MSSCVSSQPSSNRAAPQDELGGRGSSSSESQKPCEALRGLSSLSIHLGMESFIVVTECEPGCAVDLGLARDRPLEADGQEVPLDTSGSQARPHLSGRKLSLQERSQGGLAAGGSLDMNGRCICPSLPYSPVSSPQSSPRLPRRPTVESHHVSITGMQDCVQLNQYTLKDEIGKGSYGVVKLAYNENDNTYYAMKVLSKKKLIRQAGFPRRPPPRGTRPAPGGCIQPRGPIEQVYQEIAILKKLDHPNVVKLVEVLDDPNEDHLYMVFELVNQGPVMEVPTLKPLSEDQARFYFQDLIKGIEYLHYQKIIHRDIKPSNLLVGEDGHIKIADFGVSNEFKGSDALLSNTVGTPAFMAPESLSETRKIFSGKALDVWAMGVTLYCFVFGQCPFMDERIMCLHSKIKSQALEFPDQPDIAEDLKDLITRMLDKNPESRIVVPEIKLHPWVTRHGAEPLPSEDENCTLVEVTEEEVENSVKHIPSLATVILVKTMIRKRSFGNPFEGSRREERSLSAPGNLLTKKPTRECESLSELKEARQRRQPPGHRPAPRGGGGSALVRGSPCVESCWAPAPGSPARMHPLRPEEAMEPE
# Sequence of MAP/microtubule affinity-regulating kinase 3 (P27448 whole entry): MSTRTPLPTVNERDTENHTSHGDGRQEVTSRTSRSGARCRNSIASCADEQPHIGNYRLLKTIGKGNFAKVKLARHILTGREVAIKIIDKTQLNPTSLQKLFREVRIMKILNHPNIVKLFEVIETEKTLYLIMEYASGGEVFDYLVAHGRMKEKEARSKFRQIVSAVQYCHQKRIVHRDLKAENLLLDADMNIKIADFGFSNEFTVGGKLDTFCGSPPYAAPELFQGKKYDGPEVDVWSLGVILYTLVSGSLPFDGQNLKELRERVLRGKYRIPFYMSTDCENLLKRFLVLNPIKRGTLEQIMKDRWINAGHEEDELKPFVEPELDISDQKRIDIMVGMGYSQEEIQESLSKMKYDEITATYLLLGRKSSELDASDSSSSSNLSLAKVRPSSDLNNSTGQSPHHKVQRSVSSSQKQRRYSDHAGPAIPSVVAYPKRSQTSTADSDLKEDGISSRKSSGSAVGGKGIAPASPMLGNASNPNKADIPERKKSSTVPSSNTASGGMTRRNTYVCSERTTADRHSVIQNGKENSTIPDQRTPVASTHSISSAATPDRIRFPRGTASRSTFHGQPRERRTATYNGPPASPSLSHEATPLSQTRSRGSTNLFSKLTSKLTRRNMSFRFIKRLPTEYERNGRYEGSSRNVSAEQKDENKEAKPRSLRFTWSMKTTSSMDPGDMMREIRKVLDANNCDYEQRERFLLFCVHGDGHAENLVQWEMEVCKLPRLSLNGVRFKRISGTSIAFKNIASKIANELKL
# Sequence of Serine/threonine-protein kinase N2 (Q16513 whole entry): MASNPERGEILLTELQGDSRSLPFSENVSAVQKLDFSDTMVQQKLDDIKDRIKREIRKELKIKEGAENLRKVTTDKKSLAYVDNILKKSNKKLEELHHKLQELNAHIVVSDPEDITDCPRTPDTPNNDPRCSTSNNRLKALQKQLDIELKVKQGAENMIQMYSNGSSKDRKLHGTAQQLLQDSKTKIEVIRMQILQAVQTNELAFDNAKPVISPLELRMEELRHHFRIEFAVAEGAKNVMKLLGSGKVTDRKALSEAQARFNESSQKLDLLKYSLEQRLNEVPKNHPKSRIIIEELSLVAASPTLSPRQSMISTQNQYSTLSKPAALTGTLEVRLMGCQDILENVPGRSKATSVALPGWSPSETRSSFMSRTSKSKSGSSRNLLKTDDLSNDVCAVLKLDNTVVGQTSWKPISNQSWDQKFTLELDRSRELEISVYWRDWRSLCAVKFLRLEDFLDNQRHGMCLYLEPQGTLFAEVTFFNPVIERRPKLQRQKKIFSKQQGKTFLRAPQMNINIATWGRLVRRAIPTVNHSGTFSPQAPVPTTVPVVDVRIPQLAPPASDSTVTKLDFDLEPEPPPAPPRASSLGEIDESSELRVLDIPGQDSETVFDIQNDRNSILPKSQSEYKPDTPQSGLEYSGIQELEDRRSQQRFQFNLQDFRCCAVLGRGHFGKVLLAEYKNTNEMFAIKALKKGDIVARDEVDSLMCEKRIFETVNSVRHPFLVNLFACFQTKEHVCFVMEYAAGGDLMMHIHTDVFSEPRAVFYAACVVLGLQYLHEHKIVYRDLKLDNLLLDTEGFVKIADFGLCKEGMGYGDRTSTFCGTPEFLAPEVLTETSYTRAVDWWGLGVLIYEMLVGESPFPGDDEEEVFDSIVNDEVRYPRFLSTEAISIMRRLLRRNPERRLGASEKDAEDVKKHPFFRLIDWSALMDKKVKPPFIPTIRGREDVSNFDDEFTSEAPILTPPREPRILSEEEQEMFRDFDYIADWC
smiles,measurement,setting,value
c1ccc2nc3cc4[nH]cnc4cc3nc2c1,EC50,[1],1.74 µM (inconclusive)
same,AC50,[2],19.5 µM (active)
same,IC50,Saccharomyces cerevisiae,32.7 µM (active)
same,EC50,[3],15.5 µM (active)
same,IC50,[4],10.8 µM (active)
CCCCC(=O)Nc1cc(-c2c[nH]c3ncccc23)cc(Cl)n1,Ki,Misshapen-like kinase 1,> 2.51 µM (inactive)
same,Ki,[5],> 5.01 µM (inactive)
same,Ki,[6],> 3.98 µM (inactive)
same,Ki,[7],> 3.16 µM (inactive)
Oc1ccc(-c2nc(-c3ccncc3)c(-c3ccc(F)cc3)[nH]2)cc1 [SB-202190],Ki,[8],> 2.51 µM (inactive)
same,Ki,[9],> 5.01 µM (inactive)
same,Ki,[10],> 5.01 µM (inactive)
same,AC50,Cytochrome P450 2C19,10 µM (inconclusive)
same,Ki,[11],0.0631 µM (active)
same,Ki,Focal adhesion kinase 1,> 3.98 µM (inactive)
